Here are results for 1 compound from BindingDB's records for doi:10.1016/j.bmcl.2010.03.073 (Methylgene, 2010).

Assay [1] is described as follows: Inhibition of c-Met-mediated scattering in HGF-stimulated human DU145 cells.
The nature of assay [2]: Inhibition of c-Met-mediated cell migration of human A549 cells by would healing.

The structures appear in SMILES notation.

As a reminder, the IC50 is the point on the concentration scale where inhibition reaches its midpoint. Low values mean greater potency in that assay, high ones weaker potency in that assay. Regarding `Cn1cnc(-c2cc3nccc(Oc4ccc(NC(=O)c5cnn(-c6ccccc6)c5C(F)(F)F)cc4F)c3s2)c1` [N-(3-fluoro-4-(2-(1-methyl-1H-imidazol-4-yl)thieno[3,2-b]pyridin-7-yloxy)phenyl)-1-phenyl-5-(trifluoromethyl)-1H-pyrazole-4-carboxamide], the half-maximal inhibitory concentration (IC50) in assay [1] was determined as 2000 nM; in assay [2], 400 nM.
